# Laboratory results from patent US11572590B2, “Methods for evaluating tumor cell spheroids using 3D microfluidic cell culture device” (Dana-Farber Cancer Institute, Inc., priority 2017, dated 2023).
# Read-outs that look alike come from different tables or passages of the source.
# Legend:
# off-target kinases [1] = target: off-target kinases (Homo sapiens, UniProt P06241); assay: SelectScreen Kinase Profiling, single point inhibition and IC50 for off-target kinases; format: biochemical; set-up: other: FYN A; 1000 μM; conditions: FYN A, LanthaScreen Binding
# Method: (§1) Biochemical single point inhibition and IC50 concentrations for TBK1, IKKε (IKBKE), and off-target kinases were determined at ThermoFisher Scientific using SelectScreen Kinase Profiling Services (Madison, Wis., USA) (Tables S4A and S4B-1-7). To determine cellular potency, the human colorectal cancer carcinoma cell line HCT116 (ATCC, Manassas, Va.) was maintained in T175 flasks in complete RPMI medium; RPMI 1640 supplemented with 10% FBS, 1× Penicillin-Streptomycin solution and 1×MEM (non-essential amino acids). HCT116 cells were grown to 90-95% confluency in T175 flasks containing complete RPMI medium and transfected in bulk using Lipofectamine 2000 (Invitrogen, Carlsbad, Calif.) with 70 μg of ISG54-luciferase reporter plasmid (Elim Biopharmaceuticals Inc., Hayward, Calif.). The reporter plasmid contains a luciferase gene expression cassette under the transcriptional regulation of the promoter of the human interferon stimulated gene 54 (ISG54). […] The assay plates were incubated for 5 hours at 37° C., followed by addition of One-Glo luciferase firefly reagent (Promega, Madison, Wis.) at 1:1 volume/well and luminescence was measured in an EnVision Multilabel Plate Reader (PerkinElmer, Santa Clara, Calif.). The EC50 values were calculated from the fit of the dose-response curves to a four-parameter equation. […]
# off-target kinases [2] = target: off-target kinases (Homo sapiens, UniProt P05771); assay: as above; format: biochemical; set-up: other: PRKCB2 (PKC beta II); ZLYTE; ATP Km app; 1000 μM; conditions: PRKCB2 (PKC beta II), ZLYTE, ATP Km app
# Method: as §1, with “(ISG54). Transfection of the cells was allowed to take place for 6 hours, after which the cells were harvested by treatment with 0.25% trypsin EDTA (Corning Inc., Corning, N.Y.). Trypsinized cells were added to 384-well poly-d-lysine treated black clear bottom tissue culture assay plates (Greiner Bio-One GmbH, Kremsmünster, Austria) at a density of 20,000 cells/well in 80 μL of complete RPMI medium and incubated overnight. After 16-18 hours post-transfection, the assay plates were washed with PBS (Corning Inc., Corning, N.Y.), followed by addition of 80 μL/well of serum-free RPMI 1640 medium containing 1× Penicillin-Streptomycin solution, 1×MEM and 350 nL of DMSO or titrations of Compound 1.” for “(ISG54).”
# B16F10 lung metastases = assay: B16F10 tail vein injection model, lung metastases; format: in vivo, mouse; conditions: Compound 1 40 mg/kg daily for 13 days ± anti-PD-L1 10 mg/kg
# Method: Combination studies were performed by vivoPharm (Hummelstown, Pa., USA). All procedures used in the performance of these studies were carried out in accordance with vivoPharm's Standard Operating Procedures, with particular reference to US_SOPvP_EF0314 “General Procedures for Efficacy Studies.” CT26 colon carcinoma cells (1×10^6 cells/mouse in 100 μL, passage 2-3) were re-suspended in serum-free DMEM and implanted in the upper right flank of 11-12 week old female Balb/c mice (Charles River Laboratories). Mice were randomized into four groups of 10 using a matched pair distribution method based on tumor size for CT26. Treatment was initiated 12 days post-inoculation with mean tumor volume at start of dosing of 125.85 mm^3. Vehicle or Compound 1 (40 mg/kg) was administered by oral gavage daily for 26 days and isotype control or a reverse chimera anti-PD-L1 cloned from literature reports (e.g., Deng, R. et al. MAbs (2016), the content of which is incorporated herein by reference in entirety) and placed into a mouse IgG1 framework (10 mg/kg) was administered every 5 days for a total of six doses. Investigators were not blinded to treatment groups. […] Mice were sacrificed on Day 13 and lung metastases were quantified (small ≤1 mm, medium >1 mm and ≤3 mm, large >3 mm). No large lung metastases were detected.
# off-target kinases [3] = target: off-target kinases (Homo sapiens, UniProt Q9HBH9); assay: SelectScreen Kinase Profiling, single point inhibition and IC50 for off-target kinases; format: biochemical; conditions: MKNK2 (MNK2), LanthaScreen Binding
# off-target kinases [4] = target: off-target kinases (Homo sapiens, UniProt Q9NQU5); assay: as above; format: biochemical; conditions: PAK6, ZLYTE, ATP Km app
# off-target kinases [5] = target: off-target kinases (Homo sapiens, UniProt P51451); assay: as above; format: biochemical; conditions: BLK, ATP Km app, ZLYTE
# off-target kinases [6] = target: off-target kinases (Homo sapiens, UniProt Q16513); assay: as above; format: biochemical; conditions: PKN2 (PRK2), LanthaScreen Binding
# Sequence of off-target kinases (Homo sapiens, UniProt Q16513) (Q16513 whole entry): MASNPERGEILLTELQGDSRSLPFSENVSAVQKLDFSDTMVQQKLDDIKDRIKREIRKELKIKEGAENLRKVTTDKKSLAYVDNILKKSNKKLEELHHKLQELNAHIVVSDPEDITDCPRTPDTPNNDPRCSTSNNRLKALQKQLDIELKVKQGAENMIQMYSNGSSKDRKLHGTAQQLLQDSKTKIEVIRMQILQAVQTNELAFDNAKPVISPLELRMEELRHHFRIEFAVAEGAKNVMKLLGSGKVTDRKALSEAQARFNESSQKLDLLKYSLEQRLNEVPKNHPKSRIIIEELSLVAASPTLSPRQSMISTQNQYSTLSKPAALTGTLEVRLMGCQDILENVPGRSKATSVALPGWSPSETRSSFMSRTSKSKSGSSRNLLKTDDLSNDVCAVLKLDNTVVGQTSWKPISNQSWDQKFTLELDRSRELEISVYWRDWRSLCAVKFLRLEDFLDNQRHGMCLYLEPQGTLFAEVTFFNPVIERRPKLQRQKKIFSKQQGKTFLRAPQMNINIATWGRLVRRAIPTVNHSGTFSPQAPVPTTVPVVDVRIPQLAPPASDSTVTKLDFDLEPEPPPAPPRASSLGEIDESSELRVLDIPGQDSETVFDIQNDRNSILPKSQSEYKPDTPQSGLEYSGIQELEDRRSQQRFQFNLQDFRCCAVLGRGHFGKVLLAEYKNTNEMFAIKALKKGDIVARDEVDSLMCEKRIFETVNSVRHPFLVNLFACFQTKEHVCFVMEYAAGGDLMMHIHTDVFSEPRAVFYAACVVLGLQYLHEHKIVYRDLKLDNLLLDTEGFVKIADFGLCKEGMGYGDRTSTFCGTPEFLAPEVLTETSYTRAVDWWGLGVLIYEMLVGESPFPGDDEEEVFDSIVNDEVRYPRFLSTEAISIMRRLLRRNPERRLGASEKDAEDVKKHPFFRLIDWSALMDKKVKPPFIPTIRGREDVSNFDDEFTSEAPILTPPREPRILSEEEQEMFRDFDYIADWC
# Sequence of off-target kinases (Homo sapiens, UniProt Q9HBH9) (Q9HBH9 whole entry): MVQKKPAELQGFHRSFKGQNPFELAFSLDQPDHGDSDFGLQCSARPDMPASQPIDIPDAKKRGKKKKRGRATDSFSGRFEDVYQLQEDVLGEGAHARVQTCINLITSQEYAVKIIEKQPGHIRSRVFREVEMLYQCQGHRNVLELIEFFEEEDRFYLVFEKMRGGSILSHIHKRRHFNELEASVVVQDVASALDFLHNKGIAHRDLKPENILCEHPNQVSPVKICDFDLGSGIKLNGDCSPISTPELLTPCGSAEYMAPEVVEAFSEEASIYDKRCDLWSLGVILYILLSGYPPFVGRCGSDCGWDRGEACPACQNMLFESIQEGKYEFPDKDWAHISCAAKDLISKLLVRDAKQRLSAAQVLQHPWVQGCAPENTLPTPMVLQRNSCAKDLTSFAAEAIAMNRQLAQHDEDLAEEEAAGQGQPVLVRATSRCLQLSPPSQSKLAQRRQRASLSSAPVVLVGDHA
# Sequence of off-target kinases (Homo sapiens, UniProt P05771) (P05771 1-673 isoform P05771-2): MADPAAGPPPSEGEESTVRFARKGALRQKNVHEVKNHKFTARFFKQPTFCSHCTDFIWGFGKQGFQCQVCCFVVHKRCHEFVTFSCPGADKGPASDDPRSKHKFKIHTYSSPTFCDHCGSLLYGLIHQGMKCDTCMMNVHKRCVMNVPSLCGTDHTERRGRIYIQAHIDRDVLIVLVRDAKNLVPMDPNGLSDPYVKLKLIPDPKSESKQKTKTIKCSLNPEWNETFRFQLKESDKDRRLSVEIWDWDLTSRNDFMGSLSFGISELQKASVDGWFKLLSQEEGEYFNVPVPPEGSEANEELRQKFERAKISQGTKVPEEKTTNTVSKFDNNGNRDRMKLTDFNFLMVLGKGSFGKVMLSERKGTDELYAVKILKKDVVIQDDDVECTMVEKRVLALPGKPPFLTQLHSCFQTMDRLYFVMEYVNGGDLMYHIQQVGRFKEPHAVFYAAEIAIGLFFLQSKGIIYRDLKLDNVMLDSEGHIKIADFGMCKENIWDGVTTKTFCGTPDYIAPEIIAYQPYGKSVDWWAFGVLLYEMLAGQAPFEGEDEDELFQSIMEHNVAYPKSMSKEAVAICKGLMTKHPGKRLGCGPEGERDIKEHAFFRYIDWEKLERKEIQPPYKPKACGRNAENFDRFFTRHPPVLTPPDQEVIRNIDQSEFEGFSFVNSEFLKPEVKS
# Sequence of off-target kinases (Homo sapiens, UniProt P51451) (P51451 whole entry): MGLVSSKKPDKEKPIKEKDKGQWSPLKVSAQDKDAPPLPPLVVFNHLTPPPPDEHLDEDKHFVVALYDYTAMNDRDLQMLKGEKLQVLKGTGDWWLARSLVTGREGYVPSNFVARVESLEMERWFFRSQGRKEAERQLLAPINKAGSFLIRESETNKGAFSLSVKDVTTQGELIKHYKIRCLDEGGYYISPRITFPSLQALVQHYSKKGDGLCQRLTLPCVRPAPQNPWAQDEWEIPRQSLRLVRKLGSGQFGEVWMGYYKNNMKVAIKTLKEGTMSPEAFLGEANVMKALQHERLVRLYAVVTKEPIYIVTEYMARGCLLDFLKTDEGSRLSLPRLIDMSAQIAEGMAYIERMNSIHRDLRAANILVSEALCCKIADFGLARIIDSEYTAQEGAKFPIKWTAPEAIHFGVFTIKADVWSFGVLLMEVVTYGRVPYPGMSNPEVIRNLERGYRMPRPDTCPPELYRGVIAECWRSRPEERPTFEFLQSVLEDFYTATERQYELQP
# Sequence of off-target kinases (Homo sapiens, UniProt Q9NQU5) (Q9NQU5 whole entry): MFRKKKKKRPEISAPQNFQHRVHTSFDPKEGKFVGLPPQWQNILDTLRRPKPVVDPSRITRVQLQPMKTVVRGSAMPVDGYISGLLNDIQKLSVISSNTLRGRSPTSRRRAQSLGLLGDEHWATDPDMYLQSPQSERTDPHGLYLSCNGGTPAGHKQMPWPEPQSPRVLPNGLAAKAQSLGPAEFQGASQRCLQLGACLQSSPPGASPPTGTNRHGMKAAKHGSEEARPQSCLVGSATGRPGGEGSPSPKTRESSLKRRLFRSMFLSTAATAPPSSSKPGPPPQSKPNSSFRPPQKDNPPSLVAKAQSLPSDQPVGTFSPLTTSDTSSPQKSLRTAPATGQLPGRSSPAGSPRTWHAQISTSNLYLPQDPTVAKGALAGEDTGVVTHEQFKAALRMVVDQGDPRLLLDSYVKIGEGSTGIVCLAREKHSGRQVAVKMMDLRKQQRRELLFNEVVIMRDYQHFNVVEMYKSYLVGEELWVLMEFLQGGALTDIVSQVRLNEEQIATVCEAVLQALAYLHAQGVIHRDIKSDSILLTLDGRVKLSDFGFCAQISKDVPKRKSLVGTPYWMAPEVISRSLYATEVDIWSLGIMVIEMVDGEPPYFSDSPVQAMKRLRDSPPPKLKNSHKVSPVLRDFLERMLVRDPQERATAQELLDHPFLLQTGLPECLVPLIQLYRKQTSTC
# Sequence of off-target kinases (Homo sapiens, UniProt P06241) (P06241 whole entry): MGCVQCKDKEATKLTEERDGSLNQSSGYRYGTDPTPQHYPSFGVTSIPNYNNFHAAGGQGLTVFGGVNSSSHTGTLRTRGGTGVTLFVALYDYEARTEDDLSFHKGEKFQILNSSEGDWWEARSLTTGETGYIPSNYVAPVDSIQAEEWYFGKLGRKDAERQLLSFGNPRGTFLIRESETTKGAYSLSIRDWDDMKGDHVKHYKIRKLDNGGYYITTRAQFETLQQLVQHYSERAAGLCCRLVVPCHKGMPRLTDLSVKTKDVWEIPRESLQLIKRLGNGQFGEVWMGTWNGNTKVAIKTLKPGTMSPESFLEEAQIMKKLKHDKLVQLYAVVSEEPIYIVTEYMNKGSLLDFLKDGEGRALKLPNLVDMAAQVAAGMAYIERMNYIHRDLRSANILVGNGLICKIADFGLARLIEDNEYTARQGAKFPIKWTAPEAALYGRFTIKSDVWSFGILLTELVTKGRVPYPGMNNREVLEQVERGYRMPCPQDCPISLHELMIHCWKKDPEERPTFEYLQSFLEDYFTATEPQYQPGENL
smiles,measurement,setting,value
"N#Cc1cc(-c2ncnc(Nc3ccc(N4CCN(C5COC5)CC4)cc3)n2)ccc1OC1CCOCC1 [Compound 1, 5-(4-((4-(4-(oxetan-3-yl)piperazin-1-yl)phenyl)amino)-1,3,5-triazin-2-yl)-2-((tetrahydro-2H-pyran-4-yl)oxy)benzonitrile]",inhibition,off-target kinases [1]; read-out: % Inhibition 1,16%
same,inhibition,off-target kinases [1]; read-out: % Inhibition 2,21%
same,inhibition,off-target kinases [2]; read-out: % Inhibition 1,12%
same,inhibition,off-target kinases [2]; read-out: % Inhibition 2,8%
same,inhibition,off-target kinases [2]; read-out: % Inhibition Avg,10%
same,sensitization of B16F10 tail vein model to PD-L1 blockade (lung metastases),B16F10 lung metastases,could not be sensitized
same,inhibition,off-target kinases [3]; read-out: % Inhibition 1,86%
same,inhibition,off-target kinases [3]; read-out: % Inhibition 2,88%
same,inhibition,off-target kinases [3]; read-out: % Inhibition Avg,87%
same,inhibition,off-target kinases [4]; read-out: % Inhibition 1,9%
same,inhibition,off-target kinases [4]; read-out: % Inhibition 2,4%
same,inhibition,off-target kinases [4]; read-out: % Inhibition Avg,6%
same,inhibition,off-target kinases [5]; read-out: % Inhibition 1,41%
same,inhibition,off-target kinases [5]; read-out: % Inhibition 2,42%
same,inhibition,off-target kinases [5]; read-out: % Inhibition Avg,42%
same,inhibition,off-target kinases [6]; read-out: % Inhibition 1,51%
same,inhibition,off-target kinases [6]; read-out: % Inhibition 2,52%
same,inhibition,off-target kinases [6]; read-out: % Inhibition Avg,51%
